According to BindingDB's records for doi:10.1016/j.bmcl.2005.04.079 (F. Hoffmann-La Roche, 2005):

Molecular target: T1, Serine protease 1 (Bos taurus, UniProt P00760)
T1 sequence (P00760 whole entry): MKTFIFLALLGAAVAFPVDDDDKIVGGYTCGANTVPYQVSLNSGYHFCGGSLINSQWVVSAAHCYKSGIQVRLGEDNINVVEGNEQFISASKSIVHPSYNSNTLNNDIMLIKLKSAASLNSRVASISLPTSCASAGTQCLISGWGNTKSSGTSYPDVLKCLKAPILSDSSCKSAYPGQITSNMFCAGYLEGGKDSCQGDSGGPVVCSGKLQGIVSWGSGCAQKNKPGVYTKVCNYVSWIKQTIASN
Experiment: Serine Protease Inhibition Assay
Description: The enzyme reactions were initiated by the addition of substrate, and the color developed from the release of p-nitroanilide from each chromogenic substrate was monitored continuously for 5 min at 405 nm on a microtiter plate reader. […] The apparent Ki values were then calculated according to the Cheng-Prusoff equation: Ki = IC50/1 + [S]/Km.

- Ki: > 68 µM
Compound: CCOc1cc(-c2ccccc2)cc(C(Nc2ccc(C(=N)N)cc2)C(=O)O)c1 (stereo unspecified) [2-[(4-carbamimidoylphenyl)amino]-2-(3-ethoxy-5-phenylphenyl)acetic acid]
